Measured values: ChEMBL document CHEMBL4359894, “Novel class of 7-Oxabicyclo[2.2.1]heptene sulfonamides with long alkyl chains displaying improved estrogen receptor α degradation activity” (Eur J Med Chem, 2019)
Activity calls are given as the source filed them. The rule behind the calls is not given here. Where a SMILES comes first, the peptide text is derived from it. The star is where a group is joined. Cbz = O=C(OCc1ccccc1)*

What was measured:
[1] = biological target: T1, Estrogen receptor (Homo sapiens) (UniProt P03372); experiment: Induction of ERalpha degradation in human MCF7 cells assessed as decrease in ERalpha protein expression at 10 uM incubated for 24 hrs by Western blot analysis; format: cell-based
T1 sequence (whole entry): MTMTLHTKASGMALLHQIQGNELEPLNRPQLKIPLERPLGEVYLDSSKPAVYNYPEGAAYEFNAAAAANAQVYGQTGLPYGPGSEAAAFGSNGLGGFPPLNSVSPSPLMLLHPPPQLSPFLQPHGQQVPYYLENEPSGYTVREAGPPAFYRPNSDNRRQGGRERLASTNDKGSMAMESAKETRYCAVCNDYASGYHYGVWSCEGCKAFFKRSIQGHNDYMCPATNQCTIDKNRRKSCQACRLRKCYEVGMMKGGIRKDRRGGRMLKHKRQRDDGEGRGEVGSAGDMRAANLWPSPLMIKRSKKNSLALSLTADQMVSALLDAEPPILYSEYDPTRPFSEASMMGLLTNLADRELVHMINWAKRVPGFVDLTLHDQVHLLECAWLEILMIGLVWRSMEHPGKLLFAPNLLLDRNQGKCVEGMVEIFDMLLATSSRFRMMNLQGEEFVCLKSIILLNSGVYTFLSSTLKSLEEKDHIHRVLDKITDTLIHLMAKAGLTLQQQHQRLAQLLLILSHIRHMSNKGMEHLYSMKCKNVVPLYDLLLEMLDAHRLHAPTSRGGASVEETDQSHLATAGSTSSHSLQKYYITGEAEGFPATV

[2] = Therapeutic index, ratio of IC50 for cytotoxicity against human MCF10A cells to IC50 for antiproliferative activity against human MCF7 cells; format: toxicity, cell-based; conditions: read-out: Ratio IC50
[3] = biological target: Estrogen receptor beta (Homo sapiens) (UniProt Q92731); experiment: Binding affinity to ERbeta (unknown origin) by competitive fluorometric receptor binding assay relative to estradiol
Sequence of Estrogen receptor beta (Homo sapiens) (Q92731 whole entry): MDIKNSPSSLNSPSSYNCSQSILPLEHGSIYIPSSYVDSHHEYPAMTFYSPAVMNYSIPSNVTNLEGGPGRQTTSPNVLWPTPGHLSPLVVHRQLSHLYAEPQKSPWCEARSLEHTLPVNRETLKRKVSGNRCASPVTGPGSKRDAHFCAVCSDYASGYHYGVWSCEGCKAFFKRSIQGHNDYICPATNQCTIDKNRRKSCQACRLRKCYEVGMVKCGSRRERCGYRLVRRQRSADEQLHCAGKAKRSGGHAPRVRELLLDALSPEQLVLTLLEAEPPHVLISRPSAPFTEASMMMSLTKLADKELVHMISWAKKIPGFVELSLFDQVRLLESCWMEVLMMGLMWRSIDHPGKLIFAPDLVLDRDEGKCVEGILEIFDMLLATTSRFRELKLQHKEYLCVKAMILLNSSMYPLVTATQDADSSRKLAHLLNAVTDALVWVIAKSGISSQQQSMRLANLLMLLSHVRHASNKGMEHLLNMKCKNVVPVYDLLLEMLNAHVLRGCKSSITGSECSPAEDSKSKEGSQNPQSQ

MCF-10A = experiment: Cytotoxicity against human MCF10A cell incubated for 72 hrs by MTT assay; format: cell-based
[4] = biological target: T1, Estrogen receptor (Homo sapiens); experiment: Induction of ERalpha degradation in human MCF7 cells assessed as decrease in ERalpha protein expression at 1 uM incubated for 24 hrs by Western blot analysis relative to control; format: cell-based; set-up: scale not given: the % may be the effect or the level left
[5] = biological target: T1, Estrogen receptor (Homo sapiens); experiment: Binding affinity to ERalpha (unknown origin) by competitive fluorometric receptor binding assay relative to estradiol
[6] = biological target: T1, Estrogen receptor (Homo sapiens); experiment: Induction of ERalpha degradation in human MCF7 cells assessed as decrease in ERalpha protein expression at 0.1 to 10 uM incubated for 24 hrs by Western blot analysis; format: cell-based
MCF7 [7] = experiment: Antiproliferative activity against human MCF7 cell incubated for 72 hrs by MTT assay; format: functional, cell-based; conditions: MCF7, 72 h
[8] = Volume of distribution at steady state in Sprague-Dawley rat at 3 mg/kg, iv administered via foot dorsal vein by LC-MS/MS analysis; format: ADME, organism-based; conditions: in vivo, read-out: Vdss
MCF7 [9] = experiment: Induction of apoptosis in human MCF7 cells assessed as necrotic cells at 10 uM incubated for 24 hrs by Annexin V-FITC/propidium iodide staining-based flow cytometric analysis (reference value: 4.65%); format: functional
MCF7 [10] = experiment: Induction of apoptosis in human MCF7 cells assessed as early apoptotic cells at 5 uM incubated for 24 hrs by Annexin V-FITC/propidium iodide staining-based flow cytometric analysis (reference value: 1.26%); format: functional
[11] = Half life in Sprague-Dawley rat at 3 mg/kg, iv administered via foot dorsal vein by LC-MS/MS analysis; format: ADME, organism-based; conditions: in vivo
[12] = biological target: T1, Estrogen receptor (Homo sapiens); experiment: Induction of ERalpha degradation in human MCF7 cells assessed as decrease in ERalpha protein expression at 5 uM incubated for 24 hrs in presence of proteasome inhibitor MG132 by Western blot analysis; format: cell-based
MCF7 [13] = experiment: Induction of apoptosis in human MCF7 cells assessed as late apoptotic cells at 10 uM incubated for 24 hrs by Annexin V-FITC/propidium iodide staining-based flow cytometric analysis (reference value: 8.73%); format: functional
MCF7 [14] = experiment: Induction of apoptosis in human MCF7 cells assessed as necrotic cells at 5 uM incubated for 24 hrs by Annexin V-FITC/propidium iodide staining-based flow cytometric analysis (reference value: 4.65%); format: functional
MCF7 [15] = experiment: Induction of apoptosis in human MCF7 cells assessed as necrotic cells at 1 uM incubated for 24 hrs by Annexin V-FITC/propidium iodide staining-based flow cytometric analysis (reference value: 4.65%); format: functional
MCF7 [16] = experiment: Induction of apoptosis in human MCF7 cells assessed as early apoptotic cells at 1 uM incubated for 24 hrs by Annexin V-FITC/propidium iodide staining-based flow cytometric analysis (reference value: 1.26%); format: functional
MCF7 [17] = experiment: Induction of apoptosis in human MCF7 cells assessed as early apoptotic cells at 10 uM incubated for 24 hrs by Annexin V-FITC/propidium iodide staining-based flow cytometric analysis (reference value: 1.26%); format: functional
[18] = Plasma clearance in Sprague-Dawley rat at 3 mg/kg, iv administered via foot dorsal vein by LC-MS/MS analysis; format: ADME, organism-based
[19] = biological target: T1, Estrogen receptor (Homo sapiens); experiment: Induction of ERalpha degradation in human MCF7 cells assessed as decrease in ERalpha protein expression at 0.5 uM incubated for 24 hrs by Western blot analysis; format: cell-based
[20] = AUC (0 to infinity) in Sprague-Dawley rat at 3 mg/kg, iv administered via foot dorsal vein by LC-MS/MS analysis; format: ADME, organism-based; set-up: dose 3 mg/kg, route intravenous, time infinity; conditions: in vivo
MCF7 [21] = experiment: Induction of apoptosis in human MCF7 cells assessed as live cells at 5 uM incubated for 24 hrs by Annexin V-FITC/propidium iodide staining-based flow cytometric analysis (reference value: 85.37%); format: functional
MCF7 [22] = experiment: Induction of apoptosis in human MCF7 cells assessed as late apoptotic cells at 5 uM incubated for 24 hrs by Annexin V-FITC/propidium iodide staining-based flow cytometric analysis (reference value: 8.73%); format: functional
[23] = Tmax in Sprague-Dawley rat at 3 mg/kg, iv administered via foot dorsal vein by LC-MS/MS analysis; format: ADME, organism-based; conditions: in vivo
MCF7 [24] = experiment: Induction of apoptosis in human MCF7 cells assessed as live cells at 1 uM incubated for 24 hrs by Annexin V-FITC/propidium iodide staining-based flow cytometric analysis (reference value: 85.37%); format: functional
MCF7 [25] = experiment: Induction of apoptosis in human MCF7 cells assessed as live cells at 10 uM incubated for 24 hrs by Annexin V-FITC/propidium iodide staining-based flow cytometric analysis (reference value: 85.37%); format: functional
[26] = Cmax in Sprague-Dawley rat at 3 mg/kg, iv administered via foot dorsal vein by LC-MS/MS analysis; format: ADME, organism-based; set-up: dose 3 mg/kg, route intravenous; conditions: in vivo
[27] = biological target: T1, Estrogen receptor (Homo sapiens); experiment: Induction of ERalpha degradation in human MCF7 cells assessed as decrease in ERalpha protein expression at 5 uM incubated for 24 hrs by Western blot analysis relative to control; format: cell-based; set-up: scale not given: the % may be the effect or the level left
MCF7 [28] = experiment: Induction of apoptosis in human MCF7 cells assessed as late apoptotic cells at 1 uM incubated for 24 hrs by Annexin V-FITC/propidium iodide staining-based flow cytometric analysis (reference value: 8.73%); format: functional

CC(C)C[C@@H](C=O)NC(=O)[C@H](CC(C)C)NC(=O)[C@H](CC(C)C)NC(=O)OCc1ccccc1 (Cbz-Leu-Leu-Leu-aldehyde)
Activity [1]: inactive

COc1ccc(N(CC(F)(F)F)S(=O)(=O)[C@H]2C[C@H]3O[C@@H]2C(c2ccc(O)cc2)=C3c2ccc(O)cc2)cc1 (relative stereo)
selectivity ratio [2]: 4.2 | relative binding affinity (RBA) [3]: 0.07 | IC50 (MCF-10A): 41.7 µM | Activity [4]: Active | relative binding affinity (RBA) [5]: 0.74 | Activity [6]: Active | IC50 (MCF7 [7]): 9.84 µM

CCCCCCOc1ccc(N(CC(F)(F)F)S(=O)(=O)[C@H]2C[C@H]3O[C@@H]2C(c2ccc(O)cc2)=C3c2ccc(O)cc2)cc1 (relative stereo)
Vd [8]: 10.7 L/kg | selectivity ratio [2]: 51 | Activity (MCF7 [9]): 1.88% | Activity (MCF7 [10]): 36.96% | half-life [11]: 2.2 h | Activity [12]: inactive | relative binding affinity (RBA) [3]: 0.86 | Activity (MCF7 [13]): 18.77% | Activity (MCF7 [14]): 9.24% | IC50 (MCF-10A): 39.3 µM | Activity (MCF7 [15]): 1.34% | Activity [4]: 100% | Activity (MCF7 [16]): 5.99% | Activity (MCF7 [17]): 65.96% | relative binding affinity (RBA) [5]: 3.11 | clearance [18]: 105 mL/min/kg | Activity [19]: Active | AUC(0-inf) [20]: 529 ng·h/mL | IC50 (MCF7 [7]): 0.77 µM | Activity (MCF7 [21]): 12.95% | Activity (MCF7 [22]): 40.85% | Tmax [23]: 4.8 min | Activity (MCF7 [24]): 79.95% | Activity (MCF7 [25]): 13.39% | Cmax [26]: 964 ng/mL | Activity [27]: Active | Activity (MCF7 [28]): 12.72%

CCCCCOc1ccc(C2=C(c3ccc(O)cc3)[C@H]3C[C@H](S(=O)(=O)N(CC(F)(F)F)c4ccc(OC)cc4)[C@@H]2O3)cc1 (relative stereo)
selectivity ratio [2]: 7.6 | relative binding affinity (RBA) [3]: 0.04 | IC50 (MCF-10A): 97.3 µM | relative binding affinity (RBA) [5]: 4.29 | IC50 (MCF7 [7]): 12.7 µM | Activity [27]: 100%
